These results are taken from US11814364B2, “Pyridine N-oxide derivatives useful as factor XIa inhibitors” (Janssen Pharmaceutica NV, priority 2021, dated 2023).

pIC50: −log10 of the molar value.

Sequence of human plasma kallikrein (P03952 391-638 limits assumed): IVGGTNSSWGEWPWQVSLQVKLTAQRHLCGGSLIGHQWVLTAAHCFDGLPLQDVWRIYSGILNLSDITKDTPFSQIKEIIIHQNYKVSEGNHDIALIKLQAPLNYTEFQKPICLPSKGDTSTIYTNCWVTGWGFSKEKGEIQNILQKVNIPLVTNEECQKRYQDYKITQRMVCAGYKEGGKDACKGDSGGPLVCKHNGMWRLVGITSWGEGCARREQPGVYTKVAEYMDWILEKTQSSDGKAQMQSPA
Sequence of human plasma kallikrein (P03952 20-390 partner limits assumed): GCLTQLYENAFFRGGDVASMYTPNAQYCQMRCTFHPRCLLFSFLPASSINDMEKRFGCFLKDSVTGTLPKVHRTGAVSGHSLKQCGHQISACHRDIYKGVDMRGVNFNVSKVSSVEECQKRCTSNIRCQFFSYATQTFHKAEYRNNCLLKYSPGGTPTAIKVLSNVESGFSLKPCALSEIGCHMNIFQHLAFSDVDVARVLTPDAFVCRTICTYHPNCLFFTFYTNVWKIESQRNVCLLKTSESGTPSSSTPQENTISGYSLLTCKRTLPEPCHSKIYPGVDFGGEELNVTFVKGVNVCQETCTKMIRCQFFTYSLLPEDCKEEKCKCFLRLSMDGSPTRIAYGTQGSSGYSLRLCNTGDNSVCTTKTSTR

The target in the experiment is human plasma kallikrein (Homo sapiens, UniProt P03952). The experiment is described as follows: Kallikrein inhibition FLINT assay with quenched AMC peptide substrate Z-Gly-Pro-Arg-AMC (end point EP or kinetic KIN reads). The format is biochemical. The following applies: kinetic reads at 5 min intervals over 30 min; read-out: Kallikrein (KIN) IC50. The essentials:
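Enzyme and compound were preincubated 30 min before adding 50 μM AMC substrate in pH 7.5 Tris/NaCl/CaCl2/BSA/CHAPS buffer. AMC release was read at 30 min endpoint or every 5 min.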
The term pIC50 denotes −log10 of the IC50, conventionally taken in molar units. On to `NC(=O)c1cnn(CC(c2ccc(-c3c(-n4cnnn4)ccc(Cl)c3F)c[n+]2[O-])n2cc(-c3ccnc(C(F)(F)F)c3)cn2)c1` (centres unmarked) [Example P483], for which the pIC50 was 8.04.

Turning to `[O-][n+]1cc(-c2c(-n3cc(C4CC4)nn3)ccc(Cl)c2F)ccc1C(Cn1cc(F)cn1)n1cc(-c2ccnc(C(F)(F)F)c2)cn1` (centres unmarked) [Example P485], the negative logarithm of the IC50 (pIC50) was 6.17.

On to `NC(=O)Cc1ccn(CC(c2ccc(-c3c(-n4cnnn4)ccc(Cl)c3F)c[n+]2[O-])n2cc(-c3ccnc(C(F)(F)F)c3)cn2)n1` (centres unmarked) [Example P486], for which the negative-log IC50 (pIC50) was 7.99.

In the case of `Cn1nccc1-c1cnn(C(CCOC(F)F)c2ccc(-c3c(-n4cnnn4)ccc(Cl)c3F)c[n+]2[O-])c1` (centres unmarked) [Example P487], the pIC50 was 8.05.

For `Cc1ncsc1-c1cnn(C(CC2CC2)c2ccc(-c3c(-n4cnnn4)ccc(Cl)c3F)c[n+]2[O-])c1` (centres unmarked) [Example P488], the pIC50 was 7.03.

For `COCc1ccnn1CC(c1ccc(-c2c(-n3cnnn3)ccc(Cl)c2F)c[n+]1[O-])n1cc(-c2ccc(N)nc2F)cn1` (centres unmarked) [Example P489], the pIC50 was 7.24.

In the case of `COCc1ccn(CC(c2ccc(-c3c(-n4cnnn4)ccc(Cl)c3F)c[n+]2[O-])n2cc(-c3ccc(N)nc3F)cn2)n1` (centres unmarked) [Example P492], the pIC50 is 8.55.

As for `[O-][n+]1cc(-c2c(-n3cnnn3)ccc(Cl)c2F)ccc1[C@H](Cn1cc(F)cn1)n1cc(-c2cncs2)cn1` [Example P493], the pIC50 is 6.75.

On to `Cn1cncc1-c1cnn(C(CC2CC2)c2ccc(-c3c(-n4cnnn4)ccc(Cl)c3F)c[n+]2[O-])c1` (centres unmarked) [Example P495], for which the pIC50 is 6.67.

For `[O-][n+]1cc(-c2c(-n3cnnn3)ccc(Cl)c2F)ccc1C(CC1CC1)n1cc(-c2cnco2)cn1` (centres unmarked) [Example P497], the pIC50 was 6.77.

In the case of `[O-][n+]1cc(-c2c(-n3cnnn3)ccc(Cl)c2F)ccc1C(Cn1cc(F)cn1)n1cc(-c2ccnc(C3CC3)c2)cn1` (centres unmarked) [Example P500], the pIC50 is 8.43.

As to `Cn1cncc1-c1cnn(C(Cn2cc(F)cn2)c2ccc(-c3c(-n4cnnn4)ccc(Cl)c3F)c[n+]2[O-])c1` (centres unmarked) [Example P502], the pIC50 is 7.52.

With `Cn1nccc1-c1cnn(C(Cn2cc(F)cn2)c2ccc(-c3c(-n4cnnn4)ccc(Cl)c3F)c[n+]2[O-])c1` (centres unmarked) [Example P503], the pIC50 was 7.87.

Turning to `[O-][n+]1cc(F)c(-c2cnn(C(CC3CC3)c3ccc(-c4c(-n5cnnn5)ccc(Cl)c4F)c[n+]3[O-])c2)c(Cl)c1` (centres unmarked) [Example P518], the pIC50 is 6.42.

`[O-][n+]1cc(-c2c(-n3cnnn3)ccc(Cl)c2F)ccc1C(CC1CC1)n1cc(-c2cnnn2C2CC2)cn1` (centres unmarked) [Example P524]: the pIC50 was 6.37.

Regarding `[O-][n+]1cc(-c2c(-n3cnnn3)ccc(Cl)c2F)ccc1C(CC1CC1)n1cc(-c2ncns2)cn1` (centres unmarked) [Example P525], the negative logarithm of the IC50 (pIC50) was 6.09.

`COCC[C@H](c1ccc(-c2c(-n3cnnn3)ccc(Cl)c2F)c[n+]1[O-])n1cc(-c2cnc(C(F)F)s2)cn1` [Example P531]: the negative logarithm of the IC50 (pIC50) is 6.76.

For `[O-][n+]1cc(-c2c(-n3cnnn3)ccc(Cl)c2F)ccc1[C@@H](Cn1ccc(OC(F)F)n1)n1cc(-c2ccnc(C(F)(F)F)c2)cn1` [Example P533], the pIC50 was 8.11.

Consider `[O-][n+]1cc(-c2c(-n3cnnn3)ccc(Cl)c2F)ccc1[C@H](Cn1ccc(OC(F)F)n1)n1cc(-c2ccnc(C(F)(F)F)c2)cn1` [Example P534], for which the pIC50 is 7.03.

Consider `[O-][n+]1cc(-c2c(-n3cnnn3)ccc(Cl)c2F)ccc1C(CC1CC1)n1cc(-c2scnc2C2CC2)cn1` (centres unmarked) [Example P535], for which the pIC50 was 6.66.

For the compound `Cn1nncc1-c1cnn([C@H](Cn2cc(F)cn2)c2ccc(-c3c(-n4cc(Cl)nn4)ccc(Cl)c3F)c[n+]2[O-])c1` [Example P537], the pIC50 was 7.01.

For `[O-][n+]1cc(-c2c(-n3cnnn3)ccc(Cl)c2F)ccc1C(CC1CC1)n1cc(-c2scnc2C(F)(F)F)cn1` (centres unmarked) [Example P540], the pIC50 was 6.33.

As for `[O-][n+]1cc(-c2c(-n3cnnn3)ccc(Cl)c2F)ccc1C(CC1CC1)n1cc(-c2ccnn2C(F)F)cn1` (centres unmarked) [Example P542], the pIC50 was 6.52.

With `[O-][n+]1cc(-c2c(-n3cnnn3)ccc(Cl)c2F)ccc1[C@@H](CC1CC1)n1cc(-c2nnco2)cn1` [Example P545], the negative-log IC50 (pIC50) is 6.03.

Consider `Cn1nc(C(F)(F)F)cc1-c1cnn(C(CC2CC2)c2ccc(-c3c(-n4cnnn4)ccc(Cl)c3F)c[n+]2[O-])c1` (centres unmarked) [Example P548], for which the pIC50 was 6.29.

Consider `Cn1ncnc1-c1cnn([C@H](CCOC(F)F)c2ccc(-c3c(-n4cnnn4)ccc(Cl)c3F)c[n+]2[O-])c1` [Example P550], for which the pIC50 was 7.74.

With `CNc1ncc(-c2cnn([C@H](CCOC(F)F)c3ccc(-c4c(-n5cnnn5)ccc(Cl)c4F)c[n+]3[O-])c2)cn1` [Example P552], the pIC50 is 7.25.

Consider `Cn1ncc(Cl)c1-c1cnn(C(CC2CC2)c2ccc(-c3c(-n4cnnn4)ccc(Cl)c3F)c[n+]2[O-])c1` (centres unmarked) [Example P555], for which the pIC50 was 6.24.

Take `[2H]C([2H])([2H])n1nccc1-c1cnn([C@H](CCOC(F)F)c2ccc(-c3c(-n4cnnn4)ccc(Cl)c3F)c[n+]2[O-])c1` [Example P556]: the negative-log IC50 (pIC50) was 8.62.

For `[2H]C([2H])([2H])n1nccc1-c1cnn([C@@H](CCOC(F)F)c2ccc(-c3c(-n4cnnn4)ccc(Cl)c3F)c[n+]2[O-])c1` [Example P557], the pIC50 is 6.68.

Regarding `COCC[C@H](c1ccc(-c2c(-n3cnnn3)ccc(Cl)c2F)c[n+]1[O-])n1cc(-c2ccn(C(F)F)n2)cn1` [Example P560], the pIC50 was 6.99.

On to `COCC[C@H](c1ccc(-c2c(-n3cnnn3)ccc(Cl)c2F)c[n+]1[O-])n1cc(-c2ccnn2C(F)F)cn1` [Example P561], for which the pIC50 is 7.11.

Turning to `[O-][n+]1cc(-c2c(-n3cnnn3)ccc(Cl)c2F)ccc1[C@@H](CCOC(F)F)n1cc(-c2ccn(C(F)F)n2)cn1` [Example P563], the pIC50 was 7.60.

Consider `[O-][n+]1cc(-c2c(-n3cnnn3)ccc(Cl)c2F)ccc1[C@@H](CCOC(F)F)n1cc(-c2ccnn2C(F)F)cn1` [Example P564], for which the pIC50 was 8.25.

Turning to `[O-][n+]1cc(-c2c(-n3cnnn3)ccc(Cl)c2F)ccc1[C@H](Cc1ccc(F)cc1)n1cc(-c2ccnn2C(F)F)cn1` [Example P566], the pIC50 was 7.17.

In the case of `[O-][n+]1cc(-c2c(-n3cnnn3)ccc(Cl)c2F)ccc1[C@@H](Cc1ccc(F)cc1)n1cc(-c2ccnn2C(F)F)cn1` [Example P568], the pIC50 is 8.51.

With `[O-][n+]1cc(-c2c(-n3cnnn3)ccc(Cl)c2F)ccc1[C@@H](Cc1ccc(F)cc1)n1cc(-c2ccn(C(F)F)n2)cn1` [Example P569], the pIC50 was 8.12.

Consider `[O-][n+]1cc(-c2c(-n3cnnn3)ccc(Cl)c2F)ccc1[C@@H](CCOC(F)F)n1cc(-c2nn(C(F)F)cc2Cl)cn1` [Example P572], for which the pIC50 is 7.62.

On to `[O-][n+]1cc(-c2c(-n3cnnn3)ccc(Cl)c2F)ccc1C(CCOC(F)F)n1cc(-c2c(Cl)cnn2C(F)F)cn1` (centres unmarked) [Example P574], for which the pIC50 was 8.10.

As for `COCC[C@H](c1ccc(-c2c(-n3cnnn3)ccc(Cl)c2F)c[n+]1[O-])n1cc(-c2nn(C(F)F)cc2Cl)cn1` [Example P576], the pIC50 was 7.20.

Turning to `[O-][n+]1cc(-c2c(-n3cnnn3)ccc(Cl)c2F)ccc1[C@@H](CCOC(F)F)n1cc(-c2scnc2C(F)(F)F)cn1` [Example P580], the pIC50 is 7.87.

Regarding `[O-][n+]1cc(-c2c(-n3cnnn3)ccc(Cl)c2F)ccc1[C@@H](CCOC(F)F)n1cc(-c2scnc2Cl)cn1` [Example P582], the pIC50 is 9.05.

For the compound `[O-][n+]1cc(-c2c(-n3cnnn3)ccc(Cl)c2F)ccc1[C@@H](CCOC(F)F)n1cc(-c2c(F)cncc2Cl)cn1` [Example P583], the pIC50 is 8.82.

Regarding `[O-][n+]1cc(-c2c(-n3cnnn3)ccc(Cl)c2F)ccc1[C@@H](CC1CC1)n1cc(-c2cn(C(F)F)nn2)cn1` [Example P594], the pIC50 is 6.61.

For the compound `[O-][n+]1cc(-c2c(-n3cnnn3)ccc(Cl)c2F)ccc1[C@@H](Cc1ccc(F)cc1)n1cc(-c2cnnn2C(F)F)cn1` [Example P599], the pIC50 was 8.40.

With `[O-][n+]1cc(-c2c(-n3cnnn3)ccc(Cl)c2F)ccc1[C@@H](Cc1ccc(F)cc1)n1cc(-c2cn(C(F)F)nn2)cn1` [Example P600], the pIC50 was 7.36.

Consider `[O-][n+]1cc(-c2c(-n3cnnn3)ccc(Cl)c2F)ccc1[C@@H](CC1CC1)n1cc(-c2nnn(C(F)F)c2Cl)cn1` [Example P604], for which the negative-log IC50 (pIC50) is 6.54.

As for `[O-][n+]1cc(-c2c(-n3cnnn3)ccc(Cl)c2F)ccc1C(Cc1ccc(F)cc1)n1cc(-c2c(Cl)nnn2C(F)F)cn1` (centres unmarked) [Example P605], the pIC50 was 7.97.

Take `[O-][n+]1cc(-c2c(-n3cnnn3)ccc(Cl)c2F)ccc1C(Cc1ccc(F)cc1)n1cc(-c2nnn(C(F)F)c2Cl)cn1` (centres unmarked) [Example P610]: the pIC50 was 6.24.

Turning to `Nc1ncc(-c2cnn([C@H](CC3CC3)c3ccc(-c4c(-n5cnnn5)ccc(Cl)c4F)c[n+]3[O-])c2)s1` [Example P614], the pIC50 was 8.10.

With `COCC[C@H](c1ccc(-c2c(-n3cc(OC(F)F)nn3)ccc(Cl)c2F)c[n+]1[O-])n1cc(-c2cnnn2C)cn1` [Example P616], the pIC50 is 6.69.

Consider `COCC[C@H](c1ccc(-c2c(-n3cnnn3)ccc(Cl)c2F)c[n+]1[O-])n1cc(-c2cc(C(F)(F)F)nn2C)cn1` [Example P619], for which the pIC50 is 7.05.

In the case of `COCC[C@@H](c1ccc(-c2c(-n3cnnn3)ccc(Cl)c2F)c[n+]1[O-])n1cc(-c2cc(C(F)(F)F)nn2C)cn1` [Example P620], the negative-log IC50 (pIC50) was 5.28.

For the compound `COCC[C@H](c1ccc(-c2c(-n3cnnn3)ccc(Cl)c2F)c[n+]1[O-])n1cc(-c2c(Cl)cnn2C(F)F)cn1` [Example P623], the negative-log IC50 (pIC50) is 6.66.

Regarding `Nc1nc(Cl)c(-c2cnn(C(CC3CC3)c3ccc(-c4c(-n5cnnn5)ccc(Cl)c4F)c[n+]3[O-])c2)s1` (centres unmarked) [Example P624], the pIC50 was 8.31.

Take `COCC[C@H](c1ccc(-c2c(-n3cc(Cl)nn3)ccc(Cl)c2F)c[n+]1[O-])n1cc(-c2c(F)cnn2C(F)F)cn1` [Example P626]: the pIC50 was 6.49.
